Laboratory results published in US11999746B2, “Compounds” (GlaxoSmithKline Intellectual Property Development Limited, priority 2014, dated 2024).
Structures can show the parent of a compound that is named as a salt.

What was measured:
[1] = molecular target: T1, recombinant human Lp-PLA2 (Homo sapiens, UniProt Q13093); test: (1b) hrThioPAF assay, recombinant human Lp-PLA2; format: biochemical; details: Examples 266-412 were tested here, one experiment or average of multiple experiments, read-out: rhLp-PLA2 (pIC50) (converted)
T1 sequence (Q13093 22-441): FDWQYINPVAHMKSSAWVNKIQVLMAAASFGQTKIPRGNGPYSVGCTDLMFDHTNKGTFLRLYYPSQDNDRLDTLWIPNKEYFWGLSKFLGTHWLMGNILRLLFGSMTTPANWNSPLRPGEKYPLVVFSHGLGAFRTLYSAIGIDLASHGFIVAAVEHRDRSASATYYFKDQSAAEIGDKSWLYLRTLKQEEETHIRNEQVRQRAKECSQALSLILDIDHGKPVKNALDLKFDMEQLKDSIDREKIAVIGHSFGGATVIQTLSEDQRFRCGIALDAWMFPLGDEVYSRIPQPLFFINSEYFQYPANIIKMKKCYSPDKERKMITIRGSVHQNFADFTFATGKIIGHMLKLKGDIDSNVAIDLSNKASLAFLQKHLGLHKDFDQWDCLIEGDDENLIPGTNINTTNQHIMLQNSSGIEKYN
In short: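 Fluorogenic assay: 20 pM rhLp-PLA2 in 50 mM HEPES pH 7.4, 150 mM NaCl, 1 mM CHAPS with 1:3 serially diluted compounds; substrate mix of 40 μM 2-thio-PAF, 40 μM CPM, 400 μM NEM (pre-addition levels). 20 min at 25 °C in the dark; fluorescence ex 380/em 485 nm, pIC50 by curve fitting.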

Lp-PLA2 in human plasma = molecular target: T2, Lp-PLA2 in human plasma (Homo sapiens, UniProt Q13093); test: (3b) Lp-PLA2 human plasma alternative Thio-PAF assay; format: biochemical; details: (3b) alternative Thio-PAF assay, pooled human plasma; Examples of 266-412 were tested here; read-out: pIC50 in the Lp-PLA2 human plasma assay (converted)
T2 construct: from tissue; host or cells: pooled human plasma
T2 sequence (Q13093 22-441): T1 sequence (Q13093 22-441)
Procedure: (3b) Alternative Thio-PAF Assay
The human plasma assay utilizes the same thioester analog of PAF as described in (1b) “hr ThioPAF” assay. This assay may detect the activity of Lp-PLA2 in human plasma, as determined by specific inhibition by Lp-PLA2 inhibitors.
The thio-PAF assay was run as a quenched 20 μL assay. Compounds source plate was prepared by making 1:3 (by volume) serial dilution of the compounds into pure DMSO on 96-well microplate. 5 μL of compounds on compound source plate were transferred to 96-well Corning 3686 (black) low-volume plates by STAR+(Hamilton) liquid dispenser. 10 μL pooled human plasma, which was previously aliquoted and frozen, was added. Plates were centrifuged for 30 sec at 1000 rpm. After 15 minutes preincubation at room temperature, 5 μL of substrate solution comprising 2 mM 2-thio-PAF [from ethanol stock], 52 μM CPM [from a DMSO stock] and 2.5 mM NEM (N-ethylmaleimide) [made fresh daily in DMSO] in assay buffer (50 mM HEPES, pH 7.4, 150 mM NaCl, 1 mM CHAPS) was added to 96-well Corning 3686 (black) low-volume plates. After 3 mins, reaction was quenched with 10 μL of 5% aqueous trifluoroacetic acid (TFA). Plates were centrifuged 30 sec at 1000 rpm, covered to protect from light and incubated for 10 min at room temperature. Plates were read at ex: 380 nm/em: 485 nm using Envision plate reader (Perkin Elmer). Raw data were transferred to Excel software and pIC50 data, curve and QC analysis was conducted by using XL fit module in Excel.

In the case of COC(=O)N1CCN2c3cc(OCc4ccc(F)c(F)c4)nc(=O)n3CC2C1 (stereo not shown) [Example E300, Methyl 7-((3,4-difluorobenzyl)oxy)-9-oxo-3,4,11,11a-tetrahydro-1H-pyrazino[1′,2′:3,4]imidazo[1,2-c]pyrimidine-2(9H)-carboxylate], the IC50 [1] is reported as no more than 10000 nM and the IC50 (Lp-PLA2 in human plasma) is reported as no more than 100 nM.

CN(C)C(=O)N1CCN2c3cc(OCc4ccc(F)c(F)c4)nc(=O)n3CC2C1 (stereo not shown) [Example E301, 7-((3,4-Difluorobenzyl)oxy)-N,N-dimethyl-9-oxo-3,4,11,11a-tetrahydro-1H-pyrazino[1′,2′:3,4]imidazo[1,2-c]pyrimidine-2(9H)-carboxamide] was tested, and the IC50 [1] was no more than 10000 nM and the IC50 (Lp-PLA2 in human plasma) was no more than 100 nM.

N#Cc1cc(COc2cc3n(c(=O)n2)CC2CN(C(=O)C4CCC4)CCN32)ccc1F (stereo not shown) [Example E302, 5-(((2-(Cyclobutanecarbonyl)-9-oxo-2,3,4,9,11,11a-hexahydro-1H-pyrazino[1′,2′:3,4]imidazo[1,2-c]pyrimidin-7-yl)oxy)methyl)-2-fluorobenzonitrile] gave an IC50 [1] of no more than 10000 nM and an IC50 (Lp-PLA2 in human plasma) of no more than 100 nM.

For CC(C)C(=O)C(=O)N1CCN2c3cc(OCc4ccc(F)c(F)c4)nc(=O)n3CC2C1 (stereo not shown) [Example E303, 1-(7-((3,4-Difluorobenzyl)oxy)-9-oxo-3,4,11,11a-tetrahydro-1H-pyrazino[1′,2′:3,4]imidazo[1,2-c]pyrimidin-2(9H)-yl)-3-methylbutane-1,2-dione], the IC50 [1] was no more than 10000 nM and the IC50 (Lp-PLA2 in human plasma) was no more than 100 nM.

CCCN1CCN2c3cc(OCc4ccc(F)c(F)c4)nc(=O)n3CC2C1 (stereo not shown) [Example E304, 7-((3,4-Difluorobenzyl)oxy)-2-propyl-3,4,11,11a-tetrahydro-1H-pyrazino[1′,2′:3,4]imidazo[1,2-c]pyrimidin-9(2H)-one] was tested, and the IC50 [1] was no more than 10000 nM and the IC50 (Lp-PLA2 in human plasma) was no more than 100 nM.

CC(C)CN1CCN2c3cc(OCc4ccc(F)c(F)c4)nc(=O)n3CC2C1 (stereo not shown) [Example E305, 7-((3,4-Difluorobenzyl)oxy)-2-isobutyl-3,4,11,11a-tetrahydro-1H-pyrazino[1′,2′:3,4]imidazo[1,2-c]pyrimidin-9(2H)-one] showed an IC50 [1] of no more than 10000 nM and an IC50 (Lp-PLA2 in human plasma) of no more than 100 nM.

CCOC(=O)N1CCN2c3cc(OCc4ccc(F)c(F)c4)nc(=O)n3CC2C1 (stereo not shown) [Example E306, Ethyl 7-((3,4-difluorobenzyl)oxy)-9-oxo-3,4,11,11a-tetrahydro-1H-pyrazino[1′,2′:3,4]imidazo[1,2-c]pyrimidine-2(9H)-carboxylate] was tested, and the IC50 [1] was no more than 10000 nM and the IC50 (Lp-PLA2 in human plasma) was no more than 100 nM.

CC(C)OC(=O)N1CCN2c3cc(OCc4ccc(F)c(F)c4)nc(=O)n3CC2C1 (stereo not shown) [Example E307, Isopropyl 7-((3,4-difluorobenzyl)oxy)-9-oxo-3,4,11,11a-tetrahydro-1H-pyrazino[1′,2′:3,4]imidazo[1,2-c]pyrimidine-2(9H)-carboxylate] was tested, and the IC50 [1] was no more than 10000 nM and the IC50 (Lp-PLA2 in human plasma) was no more than 100 nM.

Work on CNC1(C(=O)N2CCN3c4cc(OCc5ccc(F)c(F)c5)nc(=O)n4CC3C2)CC1 (stereo not shown) [Example E308, 7-((3,4-Difluorobenzyl)oxy)-2-(1-(methylamino)cyclopropanecarbonyl)-3,4,11,11a-tetrahydro-1H-pyrazino[1′,2′:3,4]imidazo[1,2-c]pyrimidin-9(2H)-one] yielded an IC50 [1] of no more than 10000 nM and an IC50 (Lp-PLA2 in human plasma) of no more than 100 nM.

CC(C)C(=O)N1CCN2c3cc(OCc4ccc(F)c(F)c4)nc(=O)n3CC2C1 (stereo not shown) [Example E310, 7-((3,4-Difluorobenzyl)oxy)-2-isobutyryl-3,4,11,11a-tetrahydro-1Hpyrazino[1′,2′:3,4] imidazo[1,2-c]pyrimidin-9(2H)-one] was tested, and the IC50 [1] was no more than 100 nM and the IC50 (Lp-PLA2 in human plasma) was no more than 100 nM.

CS(=O)(=O)N1CCN2c3cc(OCc4ccc(F)c(F)c4)nc(=O)n3CC2C1 (stereo not shown) [Example E313, 7-((3,4-Difluorobenzyl)oxy)-2-(methylsulfonyl)-3,4,11,11a-tetrahydro-1H-pyrazino[1′,2′:3,4]imidazo[1,2-c]pyrimidin-9(2H)-one] was tested, and the IC50 [1] was no more than 100 nM and the IC50 (Lp-PLA2 in human plasma) was no more than 100 nM.

CC(=O)N1CCN2c3cc(OCc4ccc(F)c(F)c4)nc(=O)n3CC2C1 (stereo not shown) [Example E315, 2-Acetyl-7-((3,4-difluorobenzyl)oxy)-3,4,11,11a-tetrahydro-1H-pyrazino[1′,2′:3,4]imidazo[1,2-c]pyrimidin-9(2H)-one] showed an IC50 [1] of no more than 100 nM and an IC50 (Lp-PLA2 in human plasma) of no more than 100 nM.

CN1CCN2c3cc(OCc4ccc(F)c(F)c4)nc(=O)n3CC2C1 (stereo not shown) [Example E320, 7-((3,4-Difluorobenzyl)oxy)-2-methyl-3,4,11,11a-tetrahydro-1H-pyrazino[1,2′:3,4]imidazo[1,2-c]pyrimidin-9(2H)-one] was tested, and the IC50 [1] was no more than 10000 nM and the IC50 (Lp-PLA2 in human plasma) was no more than 100 nM.

For Cc1ccc(Oc2c(F)cc(COc3cc4n(c(=O)n3)CC3CN(C)CCN43)cc2F)cn1 (stereo not shown) [Example E321, 7-((3,5-Difluoro-4-((6-methylpyridin-3-yl)oxy)benzyl)oxy)-2-methyl-3,4,11,11a-tetrahydro-1Hpyrazino[1′,2′:3,4]imidazo[1,2-c]pyrimidin-9(2H)-one], the IC50 [1] was no more than 10000 nM and the IC50 (Lp-PLA2 in human plasma) was no more than 100 nM.

Molecule N#Cc1cc(COc2cc3n(c(=O)n2)CC2CN(CC(F)(F)F)CCN32)ccc1F (stereo not shown) [Example E322, 2-Fluoro-5-(((9-oxo-2-(2,2,2-trifluoroethyl)-2,3,4,9,11,11a-hexahydro-1H-pyrazino[1′,2′:3,4]imidazo[1,2-c]pyrimidin-7-yl)oxy)methyl)benzonitrile] has an IC50 [1] of no more than 10000 nM and an IC50 (Lp-PLA2 in human plasma) of no more than 100 nM.

Molecule N#Cc1cc(COc2cc3n(c(=O)n2)CC2CN(C(=O)C(F)(F)F)CCN32)ccc1F (stereo not shown) [Example E323, 2-Fluoro-5-(((9-oxo-2-(2,2,2-trifluoroacetyl)-2,3,4,9,11,11a-hexahydro-1H-pyrazino[1′,2′:3,4]imidazo[1,2-c]pyrimidin-7-yl)oxy)methyl)benzonitrile] has an IC50 [1] of no more than 10000 nM and an IC50 (Lp-PLA2 in human plasma) of no more than 100 nM.

N#Cc1cc(COc2cc3n(c(=O)n2)CC2CN(CC(=O)O)CCN32)ccc1F (stereo not shown) [Example E324, 2-(7-((3-Cyano-4-fluorobenzyl)oxy)-9-oxo-3,4,11,11a-tetrahydro-1H-pyrazino[1,2′:3,4]imidazo[1,2-c]pyrimidin-2(9H)-yl)acetic acid, trifluoroacetic acid Salt] showed an IC50 [1] of no more than 10000 nM and an IC50 (Lp-PLA2 in human plasma) of no more than 100 nM.

For N#Cc1cc(COc2cc3n(c(=O)n2)CC2CN(CCC(=O)O)CCN32)ccc1F (stereo not shown) [Example E325, 3-(7-((3-Cyano-4-fluorobenzyl)oxy)-9-oxo-3,4,11,11a-tetrahydro-1H-pyrazino[1,2′:3,4]imidazo[1,2-c]pyrimidin-2(9H)-yl)propanoic acid], the IC50 [1] was no more than 10000 nM and the IC50 (Lp-PLA2 in human plasma) was no more than 100 nM.

N#Cc1cc(COc2cc3n(c(=O)n2)CC2COCCN32)ccc1F (stereo not shown) [Example E329, 2-Fluoro-5-(((9-oxo-1,3,4,9,11,11a-hexahydropyrimido[6′,1′:2,3]imidazo[5,1-c][1,4]oxazin-7-yl)oxy)methyl)benzonitrile] showed an IC50 [1] of no more than 10000 nM and an IC50 (Lp-PLA2 in human plasma) of no more than 100 nM.

Molecule O=C(C1CC1)N1CCN2c3cc(OCc4ccc(F)c(F)c4)nc(=O)n3CC2C1 (stereo not shown) [Example E330, 2-(Cyclopropanecarbonyl)-7-((3,4-difluorobenzyl)oxy)-3,4,11,11a-tetrahydro-1H-pyrazino[1′,2′:3,4]imidazo[1,2-c]pyrimidin-9(2H)-one] has an IC50 [1] of no more than 10000 nM and an IC50 (Lp-PLA2 in human plasma) of no more than 100 nM.

In the case of O=c1nc(OCc2ccc(F)c(F)c2)cc2n1CC1CN(S(=O)(=O)C3CC3)CCN21 (stereo not shown) [Example E331, 2-(Cyclopropylsulfonyl)-7-((3,4-difluorobenzyl)oxy)-3,4,11,11a-tetrahydro-1H-pyrazino[1′,2′:3,4]imidazo[1,2-c]pyrimidin-9(2H)-one], the IC50 [1] is reported as no more than 10000 nM and the IC50 (Lp-PLA2 in human plasma) is reported as no more than 100 nM.

Molecule CC(C)(C)C(=O)N1CCN2c3cc(OCc4ccc(F)c(F)c4)nc(=O)n3CC2C1 (stereo not shown) [Example E332, 7-((3,4-Difluorobenzyl)oxy)-2-pivaloyl-3,4,11,11a-tetrahydro-1H-pyrazino[1′,2′:3,4]imidazo[1,2-c]pyrimidin-9(2H)-one] has an IC50 [1] of no more than 10000 nM and an IC50 (Lp-PLA2 in human plasma) of no more than 100 nM.

With NC1(C(=O)N2CCN3c4cc(OCc5ccc(F)c(F)c5)nc(=O)n4CC3C2)CC1 (stereo not shown) [Example E333, 2-(1-Aminocyclopropanecarbonyl)-7-((3,4-difluorobenzyl)oxy)-3,4,11,11a-tetrahydro-1H-pyrazino[1′,2′:3,4]imidazo[1,2-c]pyrimidin-9(2H)-one hydrochloride] the IC50 [1] was no more than 10000 nM and the IC50 (Lp-PLA2 in human plasma) was no more than 100 nM.
